Results: US11667643B2, “RIP1K inhibitors” (priority 2020, dated 2023)
Read-outs that look alike come from different tables or passages of the source.

How the values were obtained:
L929 cells = test: L929 cell necroptosis assay (TNFa + zVAD, CellTiter-Glo recovery), functional murine RIP1 assay; format: cell-based; settings: Mus musculus, L929, 18 h, read-out: L929-CTG-recovery, L929, TNFa + zVAD (IC50), L929 cells, zVAD-fmk, TNFa 2 ng/mL, 18 hours, CellTiter-Glo
Protocol: (§1) In this example, U937 and L929 cells were exposed to compounds of the present disclosure and a cell necroptosis assay was conducted to evaluate compound activity in functional human RIP1 and murine RIP1 assays.
(§2) U937 and L929 cells were obtained from the American Type Culture Collection (Manassa, Va., USA). Both cells were maintained in logarithmic growth phase in complete RPMI 1640 media (Sigma, ST Louis, Mo., USA) supplemented with 10% fetal bovine serum (Sigma, ST Louis, Mo., USA) at 37° C. with 5% CO2. For necroptosis assay, L929 cells were plated for 18 h in 100 μL/well medium at 10K cells/well in Costar 96-well black clear-bottom plates (Fisher Scientific, Hampton, N.H., USA); U937 cells were plated on the day of the assay in 50 μL/well medium containing 60 uM zVAD-fmk (Lonza, Basel, Switzerland) at 50K cells/well. Medium from L929 cells were removed from the 96-well plates and replaced with 50 μL/well new medium containing 40 uM zVAD-fmk. Each compound of the present disclosure evaluated in this example was serially diluted in DMSO from 2.5 mM in 4-fold dilutions, and then diluted 1:125 in complete medium. 50 μL/well 2× of the compound was then added to the cells in the plates. The cells were pre-incubated with the compound for 1 hour at 37° C. with 5% CO2 and before addition of 10 μL/well 11×TNFa (Peprotech, Rocky Hill, N.J., USA) to give a final concentration of 2 ng/mL for TNFa. The relative amount of necroptosis cells was determined by luminescent using a Wallac Victor2 Luminometer (PerkinElmer, Waltham, Mass., USA) and a CellTiter-Glo® Luminescent Cell Viability Reagent Assay (Promega, Madison, Wis., USA) added per manufacturer instructions after 18 hours of TNFa stimulation at 37° C. with 5% CO2. This example establishes that embodiments of the compounds described herein have unexpectedly potent activity against human RIP1 and murine RIP1, which allows their assessment in in vivo mouse models of disease.

RIPK1 = RIPK1 (Homo sapiens (Human), UniProt Q13546); test: biochemical; format: biochemical
Sequence of RIPK1 (Q13546 whole entry, species assumed): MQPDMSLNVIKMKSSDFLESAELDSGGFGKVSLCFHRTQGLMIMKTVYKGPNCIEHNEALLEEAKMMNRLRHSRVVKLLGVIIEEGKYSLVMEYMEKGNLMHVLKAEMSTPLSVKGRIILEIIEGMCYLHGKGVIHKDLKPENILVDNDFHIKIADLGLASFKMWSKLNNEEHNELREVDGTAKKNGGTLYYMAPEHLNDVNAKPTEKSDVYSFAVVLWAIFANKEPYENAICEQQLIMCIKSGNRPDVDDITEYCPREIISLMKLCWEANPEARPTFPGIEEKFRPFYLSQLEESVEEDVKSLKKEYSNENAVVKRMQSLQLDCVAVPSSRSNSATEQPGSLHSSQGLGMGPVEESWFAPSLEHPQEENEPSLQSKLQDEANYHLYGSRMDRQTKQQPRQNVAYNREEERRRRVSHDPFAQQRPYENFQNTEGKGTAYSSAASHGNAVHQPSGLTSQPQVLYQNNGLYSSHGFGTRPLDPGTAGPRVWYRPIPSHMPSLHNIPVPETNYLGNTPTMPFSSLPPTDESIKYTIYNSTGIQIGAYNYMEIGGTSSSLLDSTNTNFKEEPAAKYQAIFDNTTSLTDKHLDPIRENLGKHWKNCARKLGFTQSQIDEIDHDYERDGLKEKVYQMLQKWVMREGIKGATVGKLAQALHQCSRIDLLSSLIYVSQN
Protocol: In this example, compounds of the disclosure were evaluated using a biochemical assay using the ADP-Glo™ technology.
ADP-Glo™ (Promega, Madison, Wis., USA) reagents were thawed at ambient temperature. Kinase Detection Reagent was prepared by mixing kinase detection buffer with the lyophilized kinase detection substrate.
A […] stock volume of 5× Reaction Kinase Buffer was made by mixing 1000 μl of 1M MgCl2, 500 μl of 1M Tris-HCL pH7.4, 0.5 mg/ml (25 mg) of BSA, and 3475 μl of distilled H2O. A 3 ml 2× working stock volume of Reaction Kinase Buffer was made containing a final concentration of 100 μM DTT and 4 mM MnCl2.
Components of RIPK1 enzyme (Rigel Pharmaceuticals, South San Francisco, Calif., USA) were thawed on ice. Diluted RIPK1 was prepared in 1× Kinase Reaction Buffer (diluted from 2× buffer) to 31 ng/well.
1.0 ul of diluted compound was added to a 384 well plate in duplicate. […] The final reaction volume was 5.0 μl. The plate was quickly centrifuged and the reaction was incubated at 30° C. for 30 minutes. Adding 5 μl of ADP-Glo™ terminated the reaction. The plate was quickly centrifuged and the reaction was incubated at room temperature for 40 minutes. Kinase Detection Reagent was then added and incubated at room temperature for 30 minutes. The relative light unit (RLU) of kinase reaction was determined by luminescent (Luminescence 0.1 s) using a Wallac Victor2 Luminometer (PerkinElmer, Waltham, Mass., USA).

U937 cells = test: U937 cell necroptosis assay (TNFa + zVAD, CellTiter-Glo recovery), functional human RIP1 assay; format: cell-based; settings: Homo sapiens, U-937, 18 h, read-out: U937 Zvad TNF CTG Recovery, U937, TNFa + zVAD (IC50), U937 cells, zVAD-fmk, TNFa 2 ng/mL, 18 hours, CellTiter-Glo
Protocol: as §1, §2

[1] = RIPK1 enzyme 31 ng/well, 30° C. for 30 minutes, luminescence, read-out: RIPK1 ADP-Glo Kinase (IC50)

| Compound | IC50 (L929 cells) [µM] | IC50 (RIPK1; [1]) [µM] | IC50 (U937 cells) [µM] | IC50 (RIPK1) [µM] |
| --- | --- | --- | --- | --- |
| O=C(NC1CCc2ccccc2-n2ccnc21)c1nccc(-c2ccccc2)n1 (racemic) [Compound I-2, (±)-N-(5,6-Dihydro-4H-benzo[f]imidazo[1,2-a]azepin-4-yl)-4-phenylpyrimidine-2-carboxamide] | 10000 | 6.23 | 40.3 | – |
| O=C(N[C@H]1COc2ccccc2-n2c1noc2=O)c1n[nH]c(Cc2ccc(F)cc2)n1 [Compound I-50, 5-(4-Fluorobenzyl)-N-((4R)-1-oxo-4,5-dihydro-1H-benzo[6][1,2,4]oxadiazolo[4,3-d][1,4]oxazepin-4-yl)-1H-1,2,4-triazole-3-carboxamide] | 10000 | 0.109 | 0.246 | – |
| O=C(N[C@H]1COc2ccccc2-n2nnnc21)c1ncn(Cc2ccccc2F)n1 [Compound I-21, (R)—N-(4,5-Dihydrobenzo[b]tetrazolo[1,5-d][1,4]oxazepin-4-yl)-1-(2-fluorobenzyl)-1H-1,2,4-triazole-3-carboxamide] | 160 | 0.0567 | 0.0625 | – |
| O=C(N[C@H]1CSc2ccccc2-n2c1noc2=O)c1ncn(Cc2ccc(F)cc2)n1 [Compound I-32, 1-(4-Fluorobenzyl)-N-((4R)-1-oxo-4,5-dihydro-1H-benzo[b][1,2,4]oxadiazolo[4,3-d][1,4]thiazepin-4-yl)-1H-1,2,4-triazole-3-carboxamide] | 0.674 | 0.0133 | 0.0016 | – |
| O=C(NC1CCc2ccccc2-n2ccnc21)c1cc(Cc2ccccc2)on1 (racemic) [Compound I-9, (±)-5-Benzyl-N-(5,6-dihydro-4H-benzo[f]imidazo[1,2-a]azepin-4-yl)isoxazole-3-carboxamide] | 10000 | 0.0261 | 0.222 | – |
| O=C(NC1CCc2ccc(N3CCC4(CCOCC4)CC3)cc2-n2ccnc21)c1cc(Oc2ccccc2)ccn1 (racemic) [Compound I-62, (±)-N-(9-(3-Oxa-9-azaspiro[5.5]undecan-9-yl)-5,6-dihydro-4H-benzo[f]imidazo[1,2-a]azepin-4-yl)-4-phenoxypicolinamide] | 10.1 | 0.0695 | 0.0301 | – |
| O=C(NC1CCc2ccccc2-n2cnnc21)c1cc(Oc2ccccc2)ccn1 (racemic) [Compound I-59, (±)-N-(5,6-Dihydro-4H-benzo[f][1,2,4]triazolo[4,3-a]azepin-4-yl)-4-phenoxypicolinamide] | 10000 | 0.118 | 0.829 | – |
| O=C(N[C@H]1C[S+]([O-])c2ccccc2-n2nnnc21)c1cc(Cc2ccccc2)on1 (stereo partly drawn) [Compound I-26, 5-Benzyl-N-((4R)-6-oxido-4,5-dihydrobenzo[b]tetrazolo[1,5-d][1,4]thiazepin-4-yl)isoxazole-3-carboxamide] | 10000 | 1.37 | 0.176 | – |
| O=C(N[C@H]1COc2ccccc2-n2c1noc2=O)c1ncn(Cc2c(Cl)cccc2Cl)n1 [Compound I-42, 1-(2,6-Dichlorobenzyl)-N-((4R)-1-oxo-4,5-dihydro-1H-benzo[&][1,2,4]oxadiazolo[4,3-d][1,4]oxazepin-4-yl)-1H-1,2,4-triazole-3-carboxamide] | 10000 | 0.0263 | 0.041 | – |
| O=C(NC1CCc2ccccc2-n2c(Cl)cnc21)c1n[nH]c(Cc2ccccc2)n1 (racemic) [Compound I-81, (±)-5-Benzyl-N-(1-chloro-5,6-dihydro-4H-benzo[f]imidazo[1,2-a]azepin-4-yl)-1H-1,2,4-triazole-3-carboxamide] | 10000 | 0.517 | 4.25 | – |
| O=C(NC1CCc2ccccc2-n2cnnc21)c1ncn(Cc2ccccc2)n1 (racemic) [Compound I-63, (±)-1-Benzyl-N-(5,6-Dihydro-4H-benzo[f][1,2,4]triazolo[4,3-a]azepin-4-yl)-1H-1,2,4-triazole-3-carboxamide] | 10000 | 0.134 | 0.289 | – |
| O=C(NC1COc2ccccc2-n2cccc21)c1ncn(Cc2c(Cl)cccc2Cl)n1 (racemic) [Compound I-27, (±)-1-(2,6-Dichlorobenzyl)-N-(6,7-dihydrobenzo[b]pyrrolo[1,2-d][1,4]oxazepin-7-yl)-1H-1,2,4-triazole-3-carboxamide] | 5.55 | 0.0684 | 0.034 | – |
| O=C(N[C@H]1CSc2ccccc2-n2nnnc21)c1cc(Cc2ccccc2)on1 [Compound I-23, (R)-5-Benzyl-N-(4,5-dihydrobenzo[b]tetrazolo[1,5-d][1,4]thiazepin-4-yl)isoxazole-3-carboxamide] | 10000 | 0.0429 | 0.101 | – |
| O=C(NC1CCc2ccc(N3CCC4(CCOCC4)CC3)cc2-n2ccnc21)c1ncn(Cc2c(Cl)cccc2Cl)n1 (racemic) [Compound I-61, (±)-N-(9-(3-Oxa-9-azaspiro[5.5]undecan-9-yl)-5,6-dihydro-4H-benzo[f]imidazo[1,2-a]azepin-4-yl)-1-(2,6-dichlorobenzyl)-1H-1,2,4-triazole-3-carboxamide] | 0.106 | 0.0862 | 0.0181 | – |
| O=C(NC1CCc2ccc(N3CC4(CCOCC4)C3)cc2-n2ccnc21)c1n[nH]c(Cc2ccccc2)n1 (racemic) [Compound I-84, (±)-N-(9-(7-Oxa-2-azaspiro[3.5]nonan-2-yl)-5,6-dihydro-4H-benzo[f]imidazo[1,2-a]azepin-4-yl)-5-benzyl-1H-1,2,4-triazole-3-carboxamide] | 8.79 | – | 0.0386 | 0.119 |
| O=C(N[C@H]1CSc2ccccc2-n2c1noc2=O)c1n[nH]c(Cc2ccccc2)n1 [Compound I-33, 5-Benzyl-N-((4R)-1-oxo-4,5-dihydro-1H-benzo[b][1,2,4]oxadiazolo[4,3-d][1,4]thiazepin-4-yl)-1H-1,2,4-triazole-3-carboxamide] | 5.16 | 0.0125 | 0.0056 | – |
| Cc1cccc(C)c1Cn1cnc(C(=O)N[C@H]2COc3ccccc3-n3nnnc32)n1 [Compound I-20, (R)—N-(4,5-Dihydrobenzo[&]tetrazolo[1,5-d][1,4]oxazepin-4-yl)-1-(2,6-dimethylbenzyl)-1H-1,2,4-triazole-3-carboxamide] | – | 1.87 | 1.56 | – |
| O=C(NC1CCc2ccccc2-n2ccnc21)c1n[nH]c(Cc2ccccc2)n1 (racemic) [Compound I-1, (±)-5-Benzyl-N-(5,6-dihydro-4H-benzo[f]imidazo[1,2-a]azepin-4-yl)-1H-1,2,4-triazole-3-carboxamide] | 10000 | – | 0.376 | – |
| O=C(NC1CCc2ccccc2-n2ccnc21)c1ncn(Cc2c(Cl)cccc2Cl)n1 (racemic) [Compound I-7, (±)-1-(2,6-dichlorobenzyl)-N-(5,6-dihydro-4H-benzo[f]imidazo[1,2-a]azepin-4-yl)-1H-1,2,4-triazole-3-carboxamide] | 12.7 | – | 0.0137 | – |
| CN1C(=O)[C@@H](N2CCc3c(nn(Cc4ccccc4)c3Cl)C2=O)COc2cc(C#CC(C)(C)O)ccc21 [Compound I-78] | 0.0061 | – | 0.0022 | – |
| CC(C)(O)C#Cc1ccc2c(c1)-n1ccnc1C(NC(=O)c1n[nH]c(Cc3ccccc3)n1)CO2 (single isomer, unassigned) [Compound I-92] | 6 | – | 0.0676 | – |
